Earlier results on 4 molecules are cited in patent US8501405B2, “Real-time sequencing methods and systems” (Pacific Biosciences of California, Inc., priority 2009, dated 2013).

Test in data set [1]: not given
This is another data set of the same source.

Test in data set [2]: not given
This is another data set of the same source.

For data set [3] the following is noted: DNA polymerases with reverse transcriptase activity; available values for DNA-dependent DNA polymerization.
Where [4] appears, read: DNA polymerases with reverse transcriptase activity, available values for DNA-dependent DNA polymerization.
Where [5] appears, read: reverse transcriptases and RNA-dependent RNA polymerases, * wild-type or published mutants.

Like-named read-outs stand apart in the source and are kept apart here.

For “E. coli pol I: DNA polymerase with reverse transcriptase activity”, the “Strand-displacement DNA synthesis” value under setting [4] is given as “yes (degrades”. Besides, in data set [1] (setting [4]), the “Processivity (bases)” value was ~50 bases. Besides, in data set [2] (setting [4]), the “Maximum speed (bases/s)” value was 17 bases/s.
Consider “phi29: DNA polymerase with reverse transcriptase activity”, for which, under setting [4], the “Strand-displacement DNA synthesis” value is listed as “yes”. The “Processivity (bases)” value in data set [1] (setting [4]) is >70,000 bases. The “Activity with phospholinked nucleotides” value in data set [3] is “yes”. Moreover, in data set [2] (setting [4]), the “Maximum speed (bases/s)” value is listed as 100 bases/s.

B1: phi6: RNA-dependent RNA polymerase (protein, UniProt P11124 2-665, looked up)
RNA-directed RNA polymerase: PRRAPAFPLSDIKAQMLFANNIKAQQASKRSFKEGAIETYEGLLSVDPRFLSFKNELSRYLTDHFPANVDEYGRVYGNGVRTNFFGMRHMNGFPMIPATWPLASNLKKRADADLADGPVSERDNLLFRAAVRLMFSDLEPVPLKIRKGSSTCIPYFSNDMGTKIEIAERALEKAEEAGNLMLQGKFDDAYQLHQMGGAYYVVYRAQSTDAITLDPKTGKFVSKDRMVADFEYAVTGGEQGSLFAASKDASRLKEQYGIDVPDGFFCERRRTAMGGPFALNAPIMAVAQPVRNKIYSKYAYTFHHTTRLNKEEKVKEWSLCVATDVSDHDTFWPGWLRDLICDELLNMGYAPWWVKLFETSLKLPVYVGAPAPEQGHTLLGDPSNPDLEVGLSSGQGATDLMGTLLMSITYLVMQLDHTAPHLNSRIKDMPSACRFLDSYWQGHEEIRQISKSDDAILGWTKGRALVGGHRLFEMLKEGKVNPSPYMKISYEHGGAFLGDILLYDSRREPGSAIFVGNINSMLNNQFSPEYGVQSGVRDRSKRKRPFPGLAWASMKDTYGACPIYSDVLEAIERCWWNAFGESYRAYREDMLKRDTLELSRYVASMARQAGLAELTPIDLEVLADPNKLQYKWTEADVSANIHEVLMHGVSVEKTERFLRSVMPR
For the molecule B1, the “Strand-displacement DNA synthesis” value (reverse transcriptases and RNA-dependent RNA polymerases) was “yes”. In addition, the “Processivity (bases)” value in data set [1] (setting [5]) is on record as 13,500 bases. Further, the “Maximum speed (bases/s)” value in data set [2] (setting [5]) was 120 bases/s.

B2: Thermus thermophilus: DNA polymerase with reverse transcriptase activity (protein, UniProt P52028 1-834, looked up)
DNA polymerase I, thermostable: MEAMLPLFEPKGRVLLVDGHHLAYRTFFALKGLTTSRGEPVQAVYGFAKSLLKALKEDGYKAVFVVFDAKAPSFRHEAYEAYKAGRAPTPEDFPRQLALIKELVDLLGFTRLEVPGYEADDVLATLAKKAEKEGYEVRILTADRDLYQLVSDRVAVLHPEGHLITPEWLWEKYGLRPEQWVDFRALVGDPSDNLPGVKGIGEKTALKLLKEWGSLENLLKNLDRVKPENVREKIKAHLEDLRLSLELSRVRTDLPLEVDLAQGREPDREGLRAFLERLEFGSLLHEFGLLEAPAPLEEAPWPPPEGAFVGFVLSRPEPMWAELKALAACRDGRVHRAADPLAGLKDLKEVRGLLAKDLAVLASREGLDLVPGDDPMLLAYLLDPSNTTPEGVARRYGGEWTEDAAHRALLSERLHRNLLKRLEGEEKLLWLYHEVEKPLSRVLAHMEATGVRLDVAYLQALSLELAEEIRRLEEEVFRLAGHPFNLNSRDQLERVLFDELRLPALGKTQKTGKRSTSAAVLEALREAHPIVEKILQHRELTKLKNTYVDPLPSLVHPRTGRLHTRFNQTATATGRLSSSDPNLQNIPVRTPLGQRIRRAFVAEAGWALVALDYSQIELRVLAHLSGDENLIRVFQEGKDIHTQTASWMFGVPPEAVDPLMRRAAKTVNFGVLYGMSAHRLSQELAIPYEEAVAFIERYFQSFPKVRAWIEKTLEEGRKRGYVETLFGRRRYVPDLNARVKSVREAAERMAFNMPVQGTAADLMKLAMVKLFPRLREMGARMLLQVHDELLLEAPQARAEEVAALAKEAMEKAYPLAVPLEVEVGMGEDWLSAKG
Consider B2, for which, in data set [1] (setting [4]), the “Processivity (bases)” value is 300 bases. In addition, the “Maximum speed (bases/s)” value in data set [2] (setting [4]) was 120 bases/s.
